Results reported in EP3593822A1, “THERAPEUTIC AND DIAGNOSTIC APPLICATIONS OF A NEW METHOD OF MONITORING OF NEUROGLIAL INTERACTION MEMRI)” (Theranexus, priority 2018, dated 2020).
Counter-ions that a name gives are not always drawn.

Target: T1, Cx43 (Mus musculus, UniProt P23242)
T1 construct: from tissue; host or cells: brain of living wild-type C57BL/6 male mice (in vivo)
Test: Manganese-enhanced MRI (MEMRI) of mouse brain after administration of connexin modulators
Assay type: in vivo, wild-type C57BL/6 male mice
Details: for T1-w signal intensity (% of control): 1 mg/kg i.p. 2.5h before imaging, 24h after MnCl2 50 mg/kg i.p., mean ± SEM; for increase of T1-w signal intensity: n=6, change versus control, 1 mg/kg i.p.
Method: The MRI measurements were performed on 42 wild-type C57BL/6 male mice. All mice weighed between 25 and 35 g. Mice were housed 4-5 per cage under standard conditions (12/12 h light-dark cycle, light on at 7 am, 22 ± 1°C ambient temperature, 60% relative humidity). This work was carried out in accordance with the Policies of the French Committee of Ethics. Animal surgery and experimentations conducted in this study were authorized by the French Direction of Veterinary Services and all efforts were made to improve animal welfare and minimize animals suffering.
All animals were injected intraperitoneally with MnCl2 50 mg/kg. Animals received an injection of treatment (or saline) 24h after the MnCl2 administration, and were imaged 2.5h later.
The mice were anesthetized with 0.5-1.0% isoflurane in air throughout the experiments. The respiration rate was monitored and the body temperature was maintained at 36.5 °C using an MR-compatible, feedback-controlled air heating system (model 1025; SA Instruments, NY). A capillary filled with 100 µM MnCl2 was placed on the head, inside the RF coil, and was used as signal intensity reference.
The T1-weighted images were acquired using a 3D rapid acquisition with relaxation enhancement (RARE) sequence: RARE factor 4, repetition time/echo time = 250 ms / 6 ms, 4 averages. For T1 relaxation time measurements, a true fast Imaging with Steady-state free Precession (trueFISP) sequence was used with the following acquisition parameters: repetition time/echo time = 3.66/1.83 ms, flip angle = 10, inversion time = 80 ms, number of inversion times = 60, 2 averages.
The position of the brain image was co-registered to a template using SPM8 software (Welcome Trust Center for Neuroimaging, UK). The template image was co-registered to mouse brain atlas (Paxinos and Franklin's the Mouse Brain in Stereotaxic Coordinates 3rd Edition). T1-weighted signals were normalized using the signal intensity from the reference tube. T1 maps were calculated as described previously elsewhere (74). Eighteen regions of interest (ROIs) were defined using the mouse brain atlas.
The averaged T1-weighted signals and T1 values were calculated using an in house written Matlab program. To compensate for differences in coil sensitivity between left and right channels we calculated the signal intensities in ROIs drawn in the left and right cerebral cortex, including the somatosensory cortex and insular cortex, (ROIcortex_left ROIcortex_right). The averaged T1-weighted signal intensity on the left side (SIleft) was then corrected following the equation: SIleft_corrected = SIleft × SIcortex_right /SIcortex_left [formula]
Statistical analyses were performed using GraphPad Prism version 7.0c. Data were analyzed using Mann-Whitney non-parametric test, paired t test or one sample t test compared to the hypothetical value 1 or 100 as appropriate. In each experiment, a level of p<0.05 was accepted as evidence for a statistically significant effect. * p<0.05; ** p<0.01; *** p<0.001. Response of the MEMRI signal after drugs administration are expressed as means ± SEM of percent of control. The remaining data are expressed as mean ± SEM.
For all, MEMRI signals are expressed as percentage of control. Statistical significances are based on the comparison to the hypothetical value 100%.

[1] = LPB = Lateral parabrachial nucleus
[2] = mPFC = Medial prefrontal cortex

T1 sequence (P23242 2-382 limits assumed): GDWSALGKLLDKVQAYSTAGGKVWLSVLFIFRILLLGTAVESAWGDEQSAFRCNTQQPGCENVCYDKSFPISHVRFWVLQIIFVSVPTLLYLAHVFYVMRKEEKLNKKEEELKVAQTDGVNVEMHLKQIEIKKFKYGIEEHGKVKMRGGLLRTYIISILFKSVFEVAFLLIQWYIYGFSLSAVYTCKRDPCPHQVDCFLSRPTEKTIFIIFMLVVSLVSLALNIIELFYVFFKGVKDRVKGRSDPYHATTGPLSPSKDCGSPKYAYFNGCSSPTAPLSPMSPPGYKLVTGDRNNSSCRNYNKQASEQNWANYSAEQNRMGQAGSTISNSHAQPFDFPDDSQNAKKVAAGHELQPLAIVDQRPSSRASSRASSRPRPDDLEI

T1-w signal intensity (% of control) (AC = Auditory cortex)	T1-w signal intensity (% of control) (Cg = Cingulate cortex)	T1-w signal intensity (% of control) (Cpu = Caudate putamen)	T1-w signal intensity (% of control) (DRa = Dorsal raphe pallidus)	T1-w signal intensity (% of control) (Hip = Hippocampus)	T1-w signal intensity (% of control) (Hyp = Hypothalamus)	T1-w signal intensity (% of control) (IC = Insular cortex)	T1-w signal intensity (% of control) (LC = Locus coeruleus)	T1-w signal intensity (% of control) [1]	T1-w signal intensity (% of control) (MC = Motor cortex)	T1-w signal intensity (% of control) (OB = Olfactory bulb)	T1-w signal intensity (% of control) (OC = Orbital cortex)	T1-w signal intensity (% of control) (PrL = Prelimbic cortex)	T1-w signal intensity (% of control) (SC = Somatosensory cortex)	T1-w signal intensity (% of control) (SN = Substantia nigra)	T1-w signal intensity (% of control) (Sep = Septum)	T1-w signal intensity (% of control) (ThN = Thalamic nuclei)	increase of T1-w signal intensity (hypothalamus)	T1-w signal intensity (% of control) [2]	increase of T1-w signal intensity (olfactory bulb)	Compound	other results
114 ± 4.04 % of control	123 ± 5.73 % of control	120 ± 6.01 % of control	122 ± 6.86 % of control	118 ± 4.73 % of control	121 ± 7.05 % of control	118 ± 5.62 % of control	119 ± 5.69 % of control	119 ± 6.07 % of control	122 ± 5.09 % of control	123 ± 9.21 % of control	123 ± 8.23 % of control	121 ± 7.09 % of control	120 ± 4.88 % of control	117 ± 6.97 % of control	119 ± 6.95 % of control	121 ± 5.47 % of control	~+20.9%	121 ± 6.86 % of control		O=C(NCC1CCCCN1)c1cc(OCC(F)(F)F)ccc1OCC(F)(F)F (centres unmarked) [flecainide, flecainide acetate salt]	increase of T1-w signal intensity (dorsal raphe pallidus): approximately +21.9%; increase of T1-w signal intensity (lateral parabrachial nucleus): ~+19%; increase of T1-w signal intensity (locus coeruleus): ~+19.2%
117 ± 5.68 % of control	127 ± 4.49 % of control	130 ± 3.90 % of control	112 ± 5.31 % of control	118 ± 4.32 % of control	118 ± 5.38 % of control	128 ± 5.17 % of control	104 ± 6.23 % of control	106 ± 6.15 % of control	122 ± 4.61 % of control	147 ± 4.91 % of control	138 ± 4.69 % of control	136 ± 4.41 % of control	120 ± 4.90 % of control	118 ± 5.67 % of control	136 ± 3.68 % of control	120 ± 4.87 % of control	approximately +18.5%	136 ± 4.33 % of control	~+47.4%	Cc1ccc(Cl)c(Nc2ccccc2C(=O)O)c1Cl [meclofenamic acid]	T1-w signal intensity (% of control) (LPB = Lateral parabrachial nucleus, listed as MFA): 106 ± 6,15 % of control; increase of T1-w signal intensity (substantia nigra): ~+17.9%
			113 ± 6.84 % of control		113 ± 8.39 % of control		111 ± 7.61 % of control	111 ± 6.96 % of control											+26.5%	OC(c1cc(C(F)(F)F)nc2c(C(F)(F)F)cccc12)C1CCCCN1 (centres unmarked) [mefloquine, Mefloquine]	increase of T1-w signal intensity (substantia nigra): +19,2%
